Data published in patent publication US11021445B2, “Carboxylic acid derivative as AT2R receptor antagonist” (SHANDONG DANHONG PHARMACEUTICAL CO., LTD., priority 2017, dated 2021).
Like-named read-outs stand apart in the source and are kept apart here.

What was measured:
[1] = Plasma protein binding rate (PPB) test, equilibrium dialysis; type: in vitro ADME, Sprague-Dawley rats; conditions: Sprague-Dawley, rat, 37°C, read-out: Plasma Protein Binding (%) SD Rat Plasma (converted)
Protocol: (§1) In vitro protein binding rates of 0.2 μM, 2 μM, 10 μM of test compounds with Sprague-Dawley rats, beagle dogs, human plasma were determined by equilibrium dialysis.
(§2) The experiment will use a 96-well equilibrium dialysis plate (HTDialysis device) to determine the plasma protein binding rate of the to-be-tested compound and the control compounds.
(§3) Prior to the start of the experiment, the dialysis membrane was pretreated according to the instructions for use and the dialysis unit was assembled as required.
(§4) Blank plasma was taken from CD-1 mice, Sprague-Dawley rats, Beagle dogs, cynomolgus monkeys and humans (an anticoagulant is EDTA-K2, which is a commercial product purchased, or is collected and prepared by the Drug Evaluation Department of Wuxi AppTech, and is stored in a refrigerator below −60° C. before use). A certain volume of the to-be-tested compound or the control compound working solution was added to prepare plasma samples of the compound to be tested at a concentration of 0.2, 2, 10 μM and plasma samples of the control compound at a concentration of 2 μM (n=1). The organic phase content was ≤1%. First, a certain volume of a plasma sample containing the to-be-tested compound and the control compound was taken out into the sample receiving plate as a sample at zero time (T0 sample, n=3); secondly, a plasma sample containing the to-be-tested compound and the control compound was added to one side of the dialysis membrane (plasma end, n=3), and a certain volume of dialysis buffer (buffer end, n=3) was added to the other side of the dialysis membrane; then the dialysis plate was placed in a humidified incubator with 5% CO2 for incubation for 4 hours at 37±1° C.
(§5) After the incubation, a certain volume of the dialyzed buffer sample (F sample) and the dialyzed plasma sample (T sample) were transferred to the sample receiving plate, and all samples were subjected to protein precipitation for LC/MS/MS analysis. And the dissociation rate of the compound (% Unbound) was calculated by the following formula: % Unbound=100*[F]/[T], % Bound=100−% Unbound. Wherein, % Unbound is the dissociation rate of the compound; % Bound is the binding rate of the compound; [F] is the concentration of the compound at the buffer end of the dialysis plate; [T] is the concentration of the compound at the plasma end of the dialysis plate; and the experimental results are shown in Table 7.

[2] = as above; type: in vitro ADME; conditions: human, 37°C
Protocol: as §1, §2, §3, §4, §5

hAT2 = target: T1, hAT2 (Homo sapiens, UniProt P50052); assay: hAT2 receptor binding assay (SPA, [125I]-Sar1-Ile8-Angiotensin II); conditions: membrane of HEK-293 cells overexpressing hAT2; 0.1 nM 125I ligand
T1 construct: expressed in transfected cells; host or cells: HEK-293
T1 sequence (P50052 1-363): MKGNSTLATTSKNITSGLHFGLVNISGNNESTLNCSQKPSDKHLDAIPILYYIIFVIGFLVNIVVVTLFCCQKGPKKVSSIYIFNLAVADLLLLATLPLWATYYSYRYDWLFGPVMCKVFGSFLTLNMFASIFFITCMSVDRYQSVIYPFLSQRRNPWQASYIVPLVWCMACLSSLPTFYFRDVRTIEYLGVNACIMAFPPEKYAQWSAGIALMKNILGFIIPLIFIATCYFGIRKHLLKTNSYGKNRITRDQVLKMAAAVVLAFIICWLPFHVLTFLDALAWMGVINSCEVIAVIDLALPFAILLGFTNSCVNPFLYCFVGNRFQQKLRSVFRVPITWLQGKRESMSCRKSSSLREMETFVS
Protocol: hAT2 Receptor Binding Assay
Protease inhibitor mixture, free of ethylenediaminetetraacetic acid-1 tablets (Roche #11873580001) (50 mL plus one piece)
Experimental Methods and Steps
The reference ligand PD123319 and the test compound were prepared into a 750 μM mother liquor by DMSO; each compound was prepared into a solution of 8 concentration gradients (up to a concentration of 750 μM, 3-fold dilution) and 10 μl of the solution was added to a master of a 384-well plate per well.
The SPA beads were prepared to a mother liquor of 25 mg/ml by the buffer;
The isotope [^125I]-Sar1-Ile8-Angiotensin II was prepared into a mother liquor of 50 μCi/ml by adding pure water.
The cell membrane overexpressing hAT2 in HEK-293 cells was prepared to 2.5 mg/ml by the buffer.
200 nl of compound was aspirated from the mother plate with ECHO to each well of the 384-well test plate. ZPE was added to an equal volume of DMSO. (The concentration of the test compound in the reaction was diluted by 250 times).
A 50 ml membrane solution containing 10 μg/μl of magnetic beads and 0.05 μg/μl of AT2 was prepared, placed on a shaker and uniformly mixed. (100 rpm, 30 min). The test plate finally contained an hAT2 membrane with 1.25 μg/well and magnetic beads with 250 μg/well.
A 3.2 ml membrane liquid mixture was added to the compound test plate by using a Multidrop Combi pipette, and 25 μl was added to each well.
A 0.2 nM solution was prepared with 50 μCi/ml of isotope [^125I]-Sar1-Ile8-Angiotensin II mother liquor by the buffer, and 0.2 nM of ^125I was added to the compound test plate with a Multidrop Combi pipette. A volume of 25 μl was added to each well. The final concentration of ^125I isotope is 0.1 nM.
The prepared test plate was placed on a shaker overnight at room temperature at 200 rpm.
The test plate was centrifuged with a centrifuge at 1200 rpm for 1 min.
The centrifuged test plate was read with Microbeta.

[3] = Determination of kinetic solubility; type: physicochemical; conditions: buffer solution pH 7.4, aqueous buffer, kinetic from dmso stock, pH 7.4, 24 hours at room temperature, theoretical maximum 200 μM
Protocol: The to-be-tested compound was dissolved in DMSO to prepare a 10 mmol/L stock solution. 980 μL of dissolution medium was pipetted into a 2 mL screw-capped glass vial by using a pipette (Eppendorf Research Company). 20 μL of the stock solution of each test compound and the QC sample were added to a buffer solution corresponding to a kinetic detection solution of pH 7.4. The final concentrations of the test compound and DMSO solution were 200 μM and 2%, respectively. The cover of the medicine bottle was screwed. The theoretical maximum concentration is 200 μM. The mixture was shaken at 880 rpm for 24 hours at room temperature. The vial was centrifuged for 30 minutes at 13,000 rpm. 200 μL of the supernatant was added to a 96-well plate by using a digital pipette. The solubility of the test compound was determined by high performance liquid chromatography, and the experimental results are shown in Table 2.

fraction unbound at 4 h [1]: 0.002
fraction unbound at 4 h [2]: 0.002
IC50 (hAT2): 15.9 nM
solubility at 24 h [3]: > 200 µM
Structure (SMILES): N#Cc1ccc2c(c1OCc1ccccc1)C[C@@H](C(=O)O)N(C(=O)[C@H](OC1CCCC1)c1ccccc1)C2 [Compound 111]
